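Compound exposure: 48 hours, 5 concentrations, 96-well plates. The concentration for full growth arrest is given as TGI.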
Tests used:
Assay in all cases: NCI-60 cell line screen, 48 h
COLO 205 colon = tested on: COLO 205 colon
CCRF-CEM leukemia = tested on: CCRF-CEM leukemia
SF-539 CNS = tested on: SF-539 CNS
ACHN renal = tested on: ACHN renal
MOLT-4 leukemia = tested on: MOLT-4 leukemia
A498 renal = tested on: A498 renal
NCI-H226 lung = tested on: NCI-H226 lung
RXF 393 renal = tested on: RXF 393 renal
786-0 renal = tested on: 786-0 renal
DMS 114 small cell lung = tested on: DMS 114 small cell lung
OVCAR-8 ovarian = tested on: OVCAR-8 ovarian
HCT-15 colon = tested on: HCT-15 colon
MALME-3M melanoma = tested on: MALME-3M melanoma
SF-268 CNS = tested on: SF-268 CNS
HOP-92 NSCLC = tested on: HOP-92 NSCLC
M14 melanoma = tested on: M14 melanoma
SF-295 CNS = tested on: SF-295 CNS
A549 NSCLC = tested on: A549 NSCLC
LXFL 529 NSCLC = tested on: LXFL 529 NSCLC
HT29 colon = tested on: HT29 colon
HOP-62 NSCLC = tested on: HOP-62 NSCLC
EKVX NSCLC = tested on: EKVX NSCLC
UO-31 renal = tested on: UO-31 renal
K-562 leukemia = tested on: K-562 leukemia
SNB-78 CNS = tested on: SNB-78 CNS
U251 CNS = tested on: U251 CNS
UACC-257 melanoma = tested on: UACC-257 melanoma
TK-10 renal = tested on: TK-10 renal
SK-MEL-2 melanoma = tested on: SK-MEL-2 melanoma
HCT-116 colon = tested on: HCT-116 colon
SW-620 colon = tested on: SW-620 colon
CAKI-1 renal = tested on: CAKI-1 renal
UACC-62 melanoma = tested on: UACC-62 melanoma
KM20L2 colon = tested on: KM20L2 colon
HOP-18 NSCLC = tested on: HOP-18 NSCLC
SN12C renal = tested on: SN12C renal
DLD-1 colon = tested on: DLD-1 colon
NCI-H460 lung = tested on: NCI-H460 lung
NCI-H522 lung = tested on: NCI-H522 lung
SNB-19 CNS = tested on: SNB-19 CNS
XF 498 CNS = tested on: XF 498 CNS
HCC-2998 colon = tested on: HCC-2998 colon
OVCAR-3 ovarian = tested on: OVCAR-3 ovarian
SR leukemia = tested on: SR leukemia
KM12 colon = tested on: KM12 colon
LOX IMVI melanoma = tested on: LOX IMVI melanoma
DMS 273 small cell lung = tested on: DMS 273 small cell lung
SK-MEL-28 melanoma = tested on: SK-MEL-28 melanoma
SK-OV-3 ovarian = tested on: SK-OV-3 ovarian
OVCAR-5 ovarian = tested on: OVCAR-5 ovarian
HL-60(TB) leukemia = tested on: HL-60(TB) leukemia
IGROV1 ovarian = tested on: IGROV1 ovarian
RPMI-8226 leukemia = tested on: RPMI-8226 leukemia
SK-MEL-5 melanoma = tested on: SK-MEL-5 melanoma
SNB-75 CNS = tested on: SNB-75 CNS
OVCAR-4 ovarian = tested on: OVCAR-4 ovarian
M19-MEL melanoma = tested on: M19-MEL melanoma
NCI-H23 lung = tested on: NCI-H23 lung
RXF-631 renal = tested on: RXF-631 renal

Work on `CN1C(=O)C(=O)c2cc3c(c4c2c1cc1ccccc14)OCO3` yielded a TGI (COLO 205 colon) of 89.7 µM, a TGI (CCRF-CEM leukemia) greater than 100 µM and a TGI (SF-539 CNS) greater than 100 µM. For the same molecule, the TGI (ACHN renal) was greater than 100 µM, the TGI (MOLT-4 leukemia) was 93.4 µM and the TGI (A498 renal) was greater than 100 µM. For the same molecule, the TGI (NCI-H226 lung) was 73.3 µM, the TGI (RXF 393 renal) was 96.8 µM and the TGI (786-0 renal) was greater than 100 µM. It also gave a TGI (DMS 114 small cell lung) greater than 100 µM, a TGI (OVCAR-8 ovarian) greater than 100 µM and a TGI (HCT-15 colon) greater than 100 µM. The TGI (MALME-3M melanoma) was greater than 100 µM, the TGI (SF-268 CNS) was greater than 100 µM and the TGI (HOP-92 NSCLC) was greater than 100 µM. For the same molecule, the TGI (M14 melanoma) was greater than 100 µM, the TGI (SF-295 CNS) was greater than 100 µM and the TGI (A549 NSCLC) was greater than 100 µM. For the same molecule, the TGI (LXFL 529 NSCLC) was greater than 100 µM, the TGI (HT29 colon) was greater than 100 µM and the TGI (HOP-62 NSCLC) was greater than 100 µM. The TGI (EKVX NSCLC) was greater than 100 µM, the TGI (UO-31 renal) was greater than 100 µM and the TGI (K-562 leukemia) was greater than 100 µM. It also gave a TGI (SNB-78 CNS) greater than 100 µM, a TGI (U251 CNS) greater than 100 µM and a TGI (UACC-257 melanoma) greater than 100 µM. For the same molecule, the TGI (TK-10 renal) was greater than 100 µM, the TGI (SK-MEL-2 melanoma) was greater than 100 µM and the TGI (HCT-116 colon) was greater than 100 µM. For the same molecule, the TGI (SW-620 colon) was greater than 100 µM, the TGI (CAKI-1 renal) was greater than 100 µM and the TGI (UACC-62 melanoma) was 38.5 µM. It also gave a TGI (KM20L2 colon) greater than 100 µM, a TGI (HOP-18 NSCLC) greater than 100 µM and a TGI (SN12C renal) greater than 100 µM. For the same molecule, the TGI (DLD-1 colon) was greater than 100 µM, the TGI (NCI-H460 lung) was greater than 100 µM and the TGI (NCI-H522 lung) was greater than 100 µM. The TGI (SNB-19 CNS) was greater than 100 µM, the TGI (XF 498 CNS) was greater than 100 µM and the TGI (HCC-2998 colon) was greater than 100 µM. The TGI (OVCAR-3 ovarian) was greater than 100 µM, the TGI (SR leukemia) was 54.8 µM and the TGI (KM12 colon) was 58.9 µM. For the same molecule, the TGI (LOX IMVI melanoma) was 97.2 µM, the TGI (DMS 273 small cell lung) was greater than 100 µM and the TGI (SK-MEL-28 melanoma) was greater than 100 µM. For the same molecule, the TGI (SK-OV-3 ovarian) was greater than 100 µM, the TGI (OVCAR-5 ovarian) was greater than 100 µM and the TGI (HL-60(TB) leukemia) was greater than 100 µM. The TGI (IGROV1 ovarian) was greater than 100 µM, the TGI (RPMI-8226 leukemia) was greater than 100 µM and the TGI (SK-MEL-5 melanoma) was greater than 100 µM. For the same molecule, the TGI (SNB-75 CNS) was greater than 100 µM, the TGI (OVCAR-4 ovarian) was greater than 100 µM and the TGI (M19-MEL melanoma) was greater than 100 µM. The TGI (NCI-H23 lung) was greater than 100 µM.

In the case of `CCOc1cccc2ccc[n+](CC)c12`, the TGI (COLO 205 colon) is reported as greater than 100 µM, the TGI (CCRF-CEM leukemia) is reported as greater than 100 µM and the TGI (SF-539 CNS) is reported as greater than 100 µM. For the same molecule, the TGI (ACHN renal) was greater than 100 µM, the TGI (MOLT-4 leukemia) was greater than 100 µM and the TGI (NCI-H226 lung) was greater than 100 µM. For the same molecule, the TGI (RXF 393 renal) was greater than 100 µM, the TGI (786-0 renal) was greater than 100 µM and the TGI (DMS 114 small cell lung) was greater than 100 µM. The TGI (OVCAR-8 ovarian) was greater than 100 µM, the TGI (MALME-3M melanoma) was greater than 100 µM and the TGI (SF-268 CNS) was 77.9 µM. It also gave a TGI (HOP-92 NSCLC) greater than 100 µM, a TGI (M14 melanoma) greater than 100 µM and a TGI (SF-295 CNS) greater than 100 µM. For the same molecule, the TGI (A549 NSCLC) was greater than 100 µM, the TGI (LXFL 529 NSCLC) was greater than 100 µM and the TGI (HT29 colon) was greater than 100 µM. It also gave a TGI (HOP-62 NSCLC) greater than 100 µM, a TGI (EKVX NSCLC) greater than 100 µM and a TGI (UO-31 renal) greater than 100 µM. The TGI (K-562 leukemia) was greater than 100 µM, the TGI (UACC-257 melanoma) was greater than 100 µM and the TGI (TK-10 renal) was greater than 100 µM. The TGI (HCT-116 colon) was greater than 100 µM, the TGI (SW-620 colon) was greater than 100 µM and the TGI (UACC-62 melanoma) was greater than 100 µM. For the same molecule, the TGI (KM20L2 colon) was greater than 100 µM, the TGI (HOP-18 NSCLC) was greater than 100 µM and the TGI (SN12C renal) was greater than 100 µM. It also gave a TGI (DLD-1 colon) greater than 100 µM, a TGI (NCI-H460 lung) greater than 100 µM and a TGI (NCI-H522 lung) greater than 100 µM. For the same molecule, the TGI (SNB-19 CNS) was greater than 100 µM, the TGI (XF 498 CNS) was greater than 100 µM and the TGI (HCC-2998 colon) was greater than 100 µM. It also gave a TGI (OVCAR-3 ovarian) greater than 100 µM, a TGI (RXF-631 renal) greater than 100 µM and a TGI (KM12 colon) greater than 100 µM. It also gave a TGI (LOX IMVI melanoma) greater than 100 µM, a TGI (DMS 273 small cell lung) greater than 100 µM and a TGI (SK-MEL-28 melanoma) greater than 100 µM. For the same molecule, the TGI (SK-OV-3 ovarian) was greater than 100 µM, the TGI (OVCAR-5 ovarian) was greater than 100 µM and the TGI (IGROV1 ovarian) was greater than 100 µM. The TGI (RPMI-8226 leukemia) was greater than 100 µM, the TGI (SK-MEL-5 melanoma) was greater than 100 µM and the TGI (SNB-75 CNS) was greater than 100 µM. For the same molecule, the TGI (OVCAR-4 ovarian) was greater than 100 µM, the TGI (M19-MEL melanoma) was greater than 100 µM and the TGI (NCI-H23 lung) was greater than 100 µM.

— PubChem BioAssay (NCI)
